Experimental data as given in patent US20260174875A1 (Novo Nordisk A/S, priority 2023, published 2026).

Assay: Chemical stability assessment in formulation (UPLC-UV-MS purity loss at 37° C.)
Assay type: physicochemical
Details: 8 mM phosphate buffer pH 7.4, 1 mg/mL, 2 weeks
Method: The assay was performed to investigate the extend of chemical degradation in vitro over time upon incubation at 37° C. for a period of 2 weeks.
Peptide solutions were prepared by dissolving freeze-dried powder in 8 mM phosphate buffer pH 7.4 to a target of 1 mg/mL. The pH of peptide solutions was adjusted to 7.4 with 0.02 M HCl or 0.02 M NaOH. Samples were filled in Agilent HPLC vials with fixed insert. Vials were capped to prevent evaporation. The HPLC vials were incubated at 37° C. and samples were withdrawn at different time points over a period of 2 weeks, flash frozen at −80° C., and stored at −20° C. until analysis.
A flow-rate of 100 μL/min was delivered with a Binary solvent manager pump having 0.1% formic acid in water as solvent A and 0.1% formic acid in acetonitrile as solvent B. Gradient elution was carried out using 20% B from 0 to 2 min followed by 20 to 50% B from 2 to 20 min in a total run time of 30 min.

| SMILES | Purity loss per week at 37° C. [%] |
| --- | --- |
| CC[C@H](C)[C@H](NC(=O)[C@H](CCC(=O)O)NC(=O)[C@H](CCC(=O)O)NC(=O)[C@H](CC(C)C)NC(=O)[C@H](CC(C)C)NC(=O)[C@H](CCCCNC(=O)COCCOCCNC(=O)COCCOCCNC(=O)CC[C@H](NC(=O)CCCCCCCCCCCCCCCCCCC(=O)O)C(=O)O)NC(=O)[C@H](CO)NC(=O)[C@H](Cc1ccc(O)cc1)NC(=O)[C@H](CC(=O)O)NC(=O)[C@H](CO)NC(=O)[C@@H](NC(=O)[C@H](Cc1ccccc1)NC(=O)[C@@H](NC(=O)CNC(=O)[C@H](CCC(=O)O)NC(=O)C(C)(C)NC(=O)[C@@H](N)Cc1ccc(O)cc1)[C@@H](C)O)[C@@H](C)O)C(=O)N[C@@H](C)C(=O)N[C@@H](C)C(=O)N[C@@H](CCCNC(=N)N)C(=O)N[C@@H](CCC(=O)O)C(=O)N[C@@H](Cc1ccccc1)C(=O)N[C@H](C(=O)N[C@@H](CCC(=O)O)C(=O)N[C@@H](Cc1c[nH]c2ccccc12)C(=O)N[C@@H](CC(C)C)C(=O)N[C@@H](CC(C)C)C(=O)N[C@@H](C)C(=O)NCC(=O)NCC(=O)N1CCC[C@H]1C(=O)N[C@@H](CO)C(=O)N[C@@H](CO)C(=O)N[C@@H](CCC(=O)O)C(=O)N[C@@H](C)C(=O)NCC(=O)N[C@@H](C)C(=O)N[C@@H](CO)C(=O)N[C@@H](Cc1c[nH]cn1)C(=O)N[C@@H](CC(C)C)C(=O)N[C@@H](CO)C(=O)N[C@H](C(=O)N[C@@H](C)C(=O)N[C@@H](CCC(N)=O)C(=O)N[C@@H](CC(C)C)C(=O)NCC(=O)N[C@@H](CCCNC(=N)N)C(=O)N[C@@H](CC(C)C)C(=O)N[C@@H](CO)C(=O)N[C@@H](C)C(=O)N[C@@H](CCC(=O)O)C(=O)N[C@@H](CC(C)C)C(=O)N[C@@H](Cc1c[nH]cn1)C(=O)N[C@@H](CCC(N)=O)C(=O)N[C@@H](CC(C)C)C(=O)N[C@@H](C)C(=O)N[C@H](C(=O)N[C@@H](CCC(=O)O)C(=O)N1CCC[C@H]1C(=O)N[C@@H](CCCNC(=N)N)C(=O)N[C@H](C(=O)N[C@@H](CCC(=O)O)C(=O)N[C@H](C(=O)NCC(=O)N[C@@H](CO)C(=O)NCC(=O)N[C@@H](CO)C(=O)N1CCC[C@H]1C(N)=O)[C@@H](C)O)[C@@H](C)O)[C@@H](C)O)[C@@H](C)O)[C@@H](C)CC [Compound 185] | 1.7 |
| CC[C@H](C)[C@H](NC(=O)[C@H](CCC(=O)O)NC(=O)[C@H](CCC(=O)O)NC(=O)[C@H](CC(C)C)NC(=O)[C@H](CC(C)C)NC(=O)[C@H](CCCCNC(=O)COCCOCCNC(=O)COCCOCCNC(=O)CC[C@H](NC(=O)CCCCCCCCCCCCCCCCCCC(=O)O)C(=O)O)NC(=O)[C@H](CO)NC(=O)[C@H](Cc1ccc(O)cc1)NC(=O)[C@H](CC(=O)O)NC(=O)[C@H](CO)NC(=O)[C@@H](NC(=O)[C@H](Cc1ccccc1)NC(=O)[C@@H](NC(=O)CNC(=O)[C@H](CCC(=O)O)NC(=O)C(C)(C)NC(=O)[C@@H](N)Cc1ccc(O)cc1)[C@@H](C)O)[C@@H](C)O)C(=O)N[C@@H](C)C(=O)N[C@@H](C)C(=O)N[C@@H](CCCNC(=N)N)C(=O)N[C@@H](CCC(=O)O)C(=O)N[C@@H](Cc1ccccc1)C(=O)N[C@H](C(=O)N[C@@H](CCC(=O)O)C(=O)N[C@@H](Cc1c[nH]c2ccccc12)C(=O)N[C@@H](CC(C)C)C(=O)N[C@@H](CC(C)C)C(=O)N[C@@H](C)C(=O)NCC(=O)NCC(=O)N1CCC[C@H]1C(=O)N[C@@H](CO)C(=O)N[C@@H](CO)C(=O)NCC(=O)N[C@@H](C)C(=O)NCC(=O)N[C@@H](CCC(N)=O)C(=O)N[C@@H](C)C(=O)N1CCC[C@H]1C(=O)NCC(=O)N[C@@H](CCC(=O)O)C(=O)N[C@@H](C)C(=O)N1CCC[C@H]1C(=O)NCC(=O)N[C@@H](C)C(=O)N[C@@H](CO)C(=O)N[C@@H](CCC(=O)O)C(=O)N[C@@H](CC(C)C)C(=O)N[C@@H](CO)C(=O)N[C@H](C(=O)N[C@@H](C)C(=O)N[C@@H](C)C(=O)N[C@@H](CC(C)C)C(=O)NCC(=O)N[C@@H](CCCNC(=N)N)C(=O)N[C@@H](CC(C)C)C(=O)N[C@@H](CO)C(=O)N[C@@H](C)C(=O)N[C@@H](CCC(=O)O)C(=O)N[C@@H](CC(C)C)C(=O)N[C@@H](Cc1c[nH]cn1)C(=O)N[C@@H](CCC(N)=O)C(=O)N[C@@H](CC(C)C)C(=O)N[C@@H](C)C(=O)N[C@H](C(=O)N[C@@H](CC(C)C)C(=O)N1CCC[C@H]1C(=O)N[C@@H](CCCNC(=N)N)C(=O)N[C@H](C(=O)N[C@@H](CCC(=O)O)C(=O)N[C@H](C(=O)NCC(=O)N[C@@H](CO)C(=O)NCC(=O)N[C@@H](CO)C(=O)N1CCC[C@H]1C(N)=O)[C@@H](C)O)[C@@H](C)O)[C@@H](C)O)[C@@H](C)O)[C@@H](C)CC [Compound 171] | 1.0 |
| CC[C@H](C)[C@H](NC(=O)[C@H](CCC(=O)O)NC(=O)[C@H](CCC(=O)O)NC(=O)[C@H](CC(C)C)NC(=O)[C@H](CC(C)C)NC(=O)[C@H](CCCCNC(=O)COCCOCCNC(=O)COCCOCCNC(=O)CC[C@H](NC(=O)CCCCCCCCCCCCCCCCCCC(=O)O)C(=O)O)NC(=O)[C@H](CO)NC(=O)[C@H](Cc1ccc(O)cc1)NC(=O)[C@H](CC(=O)O)NC(=O)[C@H](CO)NC(=O)[C@@H](NC(=O)[C@H](Cc1ccccc1)NC(=O)[C@@H](NC(=O)CNC(=O)[C@H](CCC(=O)O)NC(=O)C(C)(C)NC(=O)[C@@H](N)Cc1ccc(O)cc1)[C@@H](C)O)[C@@H](C)O)C(=O)N[C@@H](C)C(=O)N[C@@H](C)C(=O)N[C@@H](CCCNC(=N)N)C(=O)N[C@@H](CCC(=O)O)C(=O)N[C@@H](Cc1ccccc1)C(=O)N[C@H](C(=O)N[C@@H](CCC(=O)O)C(=O)N[C@@H](Cc1c[nH]c2ccccc12)C(=O)N[C@@H](CC(C)C)C(=O)N[C@@H](CC(C)C)C(=O)N[C@@H](C)C(=O)NCC(=O)NCC(=O)N1CCC[C@H]1C(=O)N[C@@H](CO)C(=O)N[C@@H](CO)C(=O)NCC(=O)N[C@@H](C)C(=O)NCC(=O)N[C@@H](C)C(=O)N[C@@H](CO)C(=O)N[C@@H](CCC(=O)O)C(=O)N[C@@H](CC(C)C)C(=O)N[C@@H](CO)C(=O)N[C@H](C(=O)N[C@@H](C)C(=O)N[C@@H](CCC(N)=O)C(=O)N[C@@H](CC(C)C)C(=O)NCC(=O)N[C@@H](CCCNC(=N)N)C(=O)N[C@@H](CC(C)C)C(=O)N[C@@H](CO)C(=O)N[C@@H](C)C(=O)N[C@@H](CCC(=O)O)C(=O)N[C@@H](CC(C)C)C(=O)N[C@@H](Cc1c[nH]cn1)C(=O)N[C@@H](CCC(N)=O)C(=O)N[C@@H](CC(C)C)C(=O)N[C@@H](C)C(=O)N[C@H](C(=O)N[C@@H](CCC(=O)O)C(=O)N1CCC[C@H]1C(=O)N[C@@H](CCCNC(=N)N)C(=O)N[C@H](C(=O)N[C@@H](CCC(=O)O)C(=O)N[C@H](C(=O)NCC(=O)N[C@@H](CO)C(=O)NCC(=O)N[C@@H](CO)C(=O)N1CCC[C@H]1C(N)=O)[C@@H](C)O)[C@@H](C)O)[C@@H](C)O)[C@@H](C)O)[C@@H](C)CC [Compound 186] | 1.0 |
